How the values were obtained:
wheat = assay: Test A pre-/postemergence herbicide test; type: in vivo, Triticum aestivum
Summary of the method: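 Both application timings used compounds in a non-phytotoxic solvent plus surfactant. Pre-emergence: soil sprayed directly after seeding into loam/sand. Post-emergence: foliage of 2–10 cm seedlings (1–2 leaves) sprayed. Injury rated ~10 days later, 0–100.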

sedge, umbrella = assay: Test B flooded paddy test; type: in vivo, Cyperus difformis; conditions: 250 g ai/ha, Flood; scale of 0 to 100 where 0 is no effect and 100 is complete control
Summary of the method: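 In-water application to pots flooded 3 cm deep, plants at 2-leaf stage. Held in greenhouse 13–15 days at constant flood depth. Scored 0–100 by eye against controls.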

blackgrass = assay: Test C pre-/postemergence herbicide test; type: in vivo, Alopecurus myosuroides
Summary of the method: (§1)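 Herbicidal effect was judged by eye 13 to 15 days after treatment in the greenhouse, using a 0–100 scale against controls. Chemicals in a non-phytotoxic solvent with surfactant were sprayed onto planted loam/sand soil or onto plants 2 to 18 cm tall in a peat-based growing medium.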

wheat (winter wheat) = assay: Test C pre-/postemergence herbicide test; type: in vivo, Triticum aestivum
Summary of the method: as §1

galium = assay: Test C pre-/postemergence herbicide test; type: in vivo, Galium aparine; conditions: for Plant response rating, Galium: Postemergence
Summary of the method: as §1

crabgrass, large = assay: Test C pre-/postemergence herbicide test; type: in vivo, Digitaria sanguinalis
Summary of the method: as §1

johnsongrass = assay: Test C pre-/postemergence herbicide test; type: in vivo, Sorghum halepense
Summary of the method: as §1

lambsquarters = assay: Test C pre-/postemergence herbicide test; type: in vivo, Chenopodium album
Summary of the method: as §1

morningglory = assay: Test C pre-/postemergence herbicide test; type: in vivo, Ipomoea coccinea
Summary of the method: as §1

pigweed = assay: Test C pre-/postemergence herbicide test; type: in vivo, Amaranthus retroflexus
Summary of the method: as §1

waterhemp = assay: Test C pre-/postemergence herbicide test; type: in vivo, Amaranthus rudis
Summary of the method: as §1

[1] = Postemergence, 31 g ai/ha, scale 0 (no effect) to 100 (complete control)
[2] = Postemergence, 62 g ai/ha, scale 0 to 100 (0 no effect, 100 complete control)
[3] = Postemergence, 125 g ai/ha, scale 0 to 100 (0 no effect, 100 complete control)
[4] = Postemergence, 250 g ai/ha, scale 0 to 100 (0 no effect, 100 complete control)
[5] = Preemergence, 31 g ai/ha, scale 0 to 100, 0 is no effect and 100 is complete control
[6] = Preemergence, 62 g ai/ha, scale 0 to 100
[7] = Preemergence, 125 g ai/ha, scale 0 to 100 (0 no effect, 100 complete control)

**Q.** For `O=C1NCC(c2ccc(F)c(C(F)(F)F)c2)C1C(=O)Nc1ccccc1F` (racemic) [Compound 76], which “Plant response rating, Wheat” value (wheat; Postemergence, 125 g ai/ha, 0 to 100 scale, 0 no effect, 100 complete control) is on record?
**A.** 50

**Q.** And the “Plant response rating, Wheat” value (wheat; Postemergence, 500 g ai/ha, 0 to 100 scale (0 no effect, 100 complete control))?
**A.** 60

**Q.** What about the “Wheat plant response rating” value (wheat; Preemergence, 125 g ai/ha, visual rating on 0 to 100 scale (0 no effect, 100 complete control)) of the same molecule?
**A.** 0

**Q.** And the “Plant response rating, Wheat” value (wheat; preemergence, 500 g ai/ha, 0 to 100 scale)?
**A.** 0

**Q.** What about the “Plant response rating, Sedge, Umbrella” value (sedge, umbrella) of the same molecule?
**A.** 0

**Q.** What about the “Plant response rating, Blackgrass” value (blackgrass; [1]) of the same molecule?
**A.** 0

**Q.** And the “Plant response rating, Blackgrass” value (blackgrass; [2])?
**A.** 0

**Q.** And the “Plant response rating, Blackgrass” value (blackgrass; [3])?
**A.** 0

**Q.** What about the “Plant response rating, Blackgrass” value (blackgrass; [4]) of the same molecule?
**A.** 10

**Q.** And the “Blackgrass plant response rating” value (blackgrass; [5])?
**A.** 50

**Q.** What about the “Plant response rating, Blackgrass” value (blackgrass; [6]) of the same molecule?
**A.** 50

**Q.** And the “Plant response rating, Blackgrass” value (blackgrass; [7])?
**A.** 80

**Q.** What about the “Plant response rating (scale of 0 to 100), Blackgrass” value (blackgrass; Preemergence, 250 g ai/ha) of the same molecule?
**A.** 80

**Q.** And the “Plant response rating, Wheat” value (wheat (winter wheat); [1])?
**A.** 0

**Q.** And the “Plant response rating, Wheat” value (wheat (winter wheat); [2])?
**A.** 0

**Q.** And the “Plant response rating, Wheat” value (wheat (winter wheat); [3])?
**A.** 0

**Q.** And the “Plant response rating, Wheat” value (wheat (winter wheat); [4])?
**A.** 5

**Q.** What about the “Wheat plant response rating” value (wheat (winter wheat); [5]) of the same molecule?
**A.** 35

**Q.** And the “Plant response rating, Wheat” value (wheat (winter wheat); [6])?
**A.** 45

**Q.** What about the “Plant response rating, Wheat” value (wheat (winter wheat); [7]) of the same molecule?
**A.** 70

**Q.** What about the “Plant response rating (scale of 0 to 100), Wheat” value (wheat (winter wheat); Preemergence, 250 g ai/ha) of the same molecule?
**A.** 80

**Q.** What about the “Plant response rating, Galium” value (galium; 31 g ai/ha, scale 0 (no effect) to 100 (complete control)) of the same molecule?
**A.** 30

**Q.** And the “Plant response rating, Galium” value (galium; 62 g ai/ha, scale 0 to 100 (0 no effect, 100 complete control))?
**A.** 50

**Q.** What about the “Plant response rating, Galium” value (galium; 125 g ai/ha, scale 0 to 100 (0 no effect, 100 complete control)) of the same molecule?
**A.** 50

**Q.** And the “Plant response rating, Galium” value (galium; 250 g ai/ha, scale 0 to 100 (0 no effect, 100 complete control))?
**A.** 65

**Q.** What about the “Galium plant response rating” value (galium; [5]) of the same molecule?
**A.** 5

**Q.** What about the “Plant response rating (scale of 0 to 100), Galium” value (galium; Preemergence, 250 g ai/ha) of the same molecule?
**A.** 85

**Q.** And the “Plant response rating, Crabgrass, Large” value (crabgrass, large; [1])?
**A.** 0

**Q.** What about the “Plant response rating, Crabgrass, Large” value (crabgrass, large; [2]) of the same molecule?
**A.** 50

**Q.** And the “Plant response rating, Crabgrass, Large” value (crabgrass, large; [3])?
**A.** 70

**Q.** What about the “Plant response rating, Crabgrass, Large” value (crabgrass, large; [4]) of the same molecule?
**A.** 75

**Q.** And the “Crabgrass, Large plant response rating” value (crabgrass, large; [5])?
**A.** 98

**Q.** What about the “Plant response rating, Crabgrass, Large” value (crabgrass, large; [6]) of the same molecule?
**A.** 98

**Q.** What about the “Plant response rating, Crabgrass, Large” value (crabgrass, large; [7]) of the same molecule?
**A.** 100

**Q.** And the “Plant response rating (scale of 0 to 100), Crabgrass, Large” value (crabgrass, large; Preemergence, 250 g ai/ha)?
**A.** 100

**Q.** And the “Plant response rating, Johnsongrass” value (johnsongrass; [1])?
**A.** 0

**Q.** And the “Plant response rating, Johnsongrass” value (johnsongrass; [2])?
**A.** 0

**Q.** And the “Plant response rating, Johnsongrass” value (johnsongrass; [3])?
**A.** 0

**Q.** And the “Plant response rating, Johnsongrass” value (johnsongrass; [4])?
**A.** 0

**Q.** And the “Johnsongrass plant response rating” value (johnsongrass; [5])?
**A.** 20

**Q.** What about the “Plant response rating, Johnsongrass” value (johnsongrass; [6]) of the same molecule?
**A.** 45

**Q.** And the “Plant response rating, Johnsongrass” value (johnsongrass; [7])?
**A.** 45

**Q.** And the “Plant response rating (scale of 0 to 100), Johnsongrass” value (johnsongrass; Preemergence, 250 g ai/ha)?
**A.** 80

**Q.** And the “Plant response rating, Lambsquarters” value (lambsquarters; [1])?
**A.** 40

**Q.** And the “Plant response rating, Lambsquarters” value (lambsquarters; [2])?
**A.** 40

**Q.** And the “Plant response rating, Lambsquarters” value (lambsquarters; [3])?
**A.** 40

**Q.** What about the “Plant response rating, Lambsquarters” value (lambsquarters; [4]) of the same molecule?
**A.** 50

**Q.** What about the “Plant response rating, Lambsquarters” value (lambsquarters; [6]) of the same molecule?
**A.** 0

**Q.** And the “Plant response rating, Lambsquarters” value (lambsquarters; [7])?
**A.** 0

**Q.** What about the “Plant response rating (scale of 0 to 100), Lambsquarters” value (lambsquarters; Preemergence, 250 g ai/ha) of the same molecule?
**A.** 35

**Q.** What about the “Plant response rating, Morningglory” value (morningglory; [1]) of the same molecule?
**A.** 10

**Q.** What about the “Plant response rating, Morningglory” value (morningglory; [2]) of the same molecule?
**A.** 10

**Q.** And the “Plant response rating, Morningglory” value (morningglory; [3])?
**A.** 40

**Q.** What about the “Plant response rating, Morningglory” value (morningglory; [4]) of the same molecule?
**A.** 40

**Q.** And the “Morningglory plant response rating” value (morningglory; [5])?
**A.** 0

**Q.** What about the “Plant response rating, Morningglory” value (morningglory; [6]) of the same molecule?
**A.** 0

**Q.** What about the “Plant response rating, Morningglory” value (morningglory; [7]) of the same molecule?
**A.** 40

**Q.** What about the “Plant response rating (scale of 0 to 100), Morningglory” value (morningglory; Preemergence, 250 g ai/ha) of the same molecule?
**A.** 40

**Q.** And the “Plant response rating, Pigweed” value (pigweed; [1])?
**A.** 5

**Q.** What about the “Plant response rating, Pigweed” value (pigweed; [2]) of the same molecule?
**A.** 10

**Q.** And the “Plant response rating, Pigweed” value (pigweed; [3])?
**A.** 10

**Q.** And the “Plant response rating, Pigweed” value (pigweed; [4])?
**A.** 30

**Q.** What about the “Plant response rating, Pigweed” value (pigweed; [6]) of the same molecule?
**A.** 0

**Q.** What about the “Plant response rating, Pigweed” value (pigweed; [7]) of the same molecule?
**A.** 0

**Q.** What about the “Plant response rating (scale of 0 to 100), Pigweed” value (pigweed; Preemergence, 250 g ai/ha) of the same molecule?
**A.** 40

**Q.** And the “Plant response rating, Waterhemp” value (waterhemp; [1])?
**A.** 0

**Q.** And the “Plant response rating, Waterhemp” value (waterhemp; [2])?
**A.** 5

**Q.** And the “Plant response rating, Waterhemp” value (waterhemp; [3])?
**A.** 5

**Q.** What about the “Plant response rating, Waterhemp” value (waterhemp; [4]) of the same molecule?
**A.** 10

**Q.** What about the “Waterhemp plant response rating” value (waterhemp; [5]) of the same molecule?
**A.** 50

**Q.** And the “Plant response rating, Waterhemp” value (waterhemp; [6])?
**A.** 50

**Q.** And the “Plant response rating, Waterhemp” value (waterhemp; [7])?
**A.** 50

**Q.** What about the “Plant response rating (scale of 0 to 100), Waterhemp” value (waterhemp; Preemergence, 250 g ai/ha) of the same molecule?
**A.** 60

— patent US10294202B2, “Pyrrolidinones as herbicides” (FMC Corporation, priority 2013, dated 2019)
